Test results: article PMC3720801, “A Proline-Hinge Alters the Characteristics of the Amphipathic α-helical AMPs” (PLoS ONE, 2013)
Converted amounts (≈) assume the structure as drawn. Peptide text beside a SMILES is read from it.

How the values were obtained:
[1] = tested on: Proteus vulgaris (KCTC 2433); conditions: broth microdilution, 1% bactopeptone, 5×10^3 CFU/ml, 10 h at 37°C, OD 620 nm, triplicate
[2] = tested on: Escherichia coli (KCTC 1682); conditions: broth microdilution, 1% bactopeptone, 5×10^3 CFU/ml, 10 h at 37°C, OD 620 nm, triplicate
[3] = tested on: Salmonella typhimurium (KCTC 1926); conditions: broth microdilution, 1% bactopeptone, 5×10^3 CFU/ml, 10 h at 37°C, OD 620 nm, triplicate
[4] = tested on: Saccharomyces cerevisiae (KCTC 7296); conditions: MTT assay, YPD pH 5.5, 24 h at 28°C, absorbance 570 nm, triplicate
[5] = tested on: Trichosporon beigelii (KCTC 7707); assay: Antifungal MTT assay MIC; format: cell-based; conditions: YPD pH 5.5, 24 h at 28°C, absorbance 570 nm, triplicate
[6] = tested on: Candida albicans (KCTC 7270); conditions: MTT assay, YPD pH 5.5, 24 h at 28°C, absorbance 570 nm, triplicate
[7] = tested on: Bacillus subtilis (KCTC 1918); conditions: broth microdilution, 1% bactopeptone, 5×10^3 CFU/ml, 10 h at 37°C, OD 620 nm, triplicate
[8] = tested on: Staphylococcus epidermidis (KCTC 1917); conditions: broth microdilution, 1% bactopeptone, 5×10^3 CFU/ml, 10 h at 37°C, OD 620 nm, triplicate
S. aureus (KCTC 1621) = conditions: broth microdilution, 1% bactopeptone, 5×10^3 CFU/ml, 10 h at 37°C, OD 620 nm, triplicate
[9] = tested on: Pseudomonas aeruginosa (KCTC 1637); conditions: broth microdilution, 1% bactopeptone, 5×10^3 CFU/ml, 10 h at 37°C, OD 620 nm, triplicate
[10] = FITC-dextran leakage from liposomes; conditions: 10 µM peptide, peptide/lipid 1/10, 25°C, FITC fluorescence
Experimental: FITC-labeled dextrans (FD-4, 10, 20, 40, 70 and 500) were utilized as model cytoplasmic components. FD (fluorescein isothiocyanate dextrans), with average molecular masses of 4, 10, 20, 40, 70, and 500 kDa were all purchased from the Sigma Chemical Co. (St. Louis, MO). FD-entrapping liposomes (unilamellar vesicles) with different lipid compositions were prepared using the reverse-phase evaporation method, after which the concentrations of the FD-entrapping vesicles were determined in triplicate using a phosphorus assay. To prepare FD-entrapping liposomes, a buffer solution (buffer II: PBS) containing 2 mg/ml of the FD was sonicated for 30 min with a lipid solution in chloroform (20 mg/ml) on ice. The chloroform was then gradually removed using a rotary vacuum evaporator at 25°C, resulting first in the formation of a viscous gel and then a liposome suspension. Buffer (2 ml) was added, and the suspension was evaporated further to remove the remaining solvent. The liposome suspensions were then centrifuged and washed for several cycles at 22,000×gav for 30 min in order to remove unentrapped-FD. The washed liposomes were extruded 30 times through polycarbonate filters (two stacked 0.4-µm pore size filters) using an Avanti Mini-Extruder (Avanti Polar Lipids inc., Alabaster, AL) to obtain liposomes of homogeneous size (∼400 nm). Aliquots of the peptide solutions at appropriate concentrations were incubated with a suspension of FD-loaded liposomes (100 µM) for 1–20 min at 25°C, and were then centrifuged for 30 min at 22,000×g. The supernatants were recovered and the leakage was recorded by monitoring the FITC fluorescence intensity (excitation wavelength: 494 nm, emission wavelength: 520 nm). 100% leakage was achieved by addition of Triton X-100 to a final concentration of 1 mM. The percent leakage value was then plotted.

T. begellii = assay: Confocal laser-scanning microscopy, localization of FITC-conjugated peptides; format: cell-based; conditions: 15 min at 28°C
[11] = In vitro binding assay to insoluble polysaccharide; conditions: 100 µg polysaccharide + 5 µg peptide, room temperature 1 h, SDS-PAGE
Experimental: Chitin (β-1,4-N-acetyl-D-glucosamine), chitosan (β-1,4-D-glucosamine), cellulose (β-1,4-glucan), curdlan (β-1,3-glucan) and peptidoglycan (β-1,4-glycosidic linkage between N-acetyl muramic and N-acetylglucosamine) were used for the in vitro binding assay of Anal 3-Pro. One hundred µg of each insoluble polysaccharide was added in 5 µg of purified Anal 3-Pro and incubated at room temperature with mild agitation for 1 h. The mixture was centrifuged (10,000×g for 2 min) and the pellet was washed three times with 1 ml of washing buffer (10 mM Tris, pH 7.5, 500 mM NaCl, 0.02% Tween 20). The peptide bound to insoluble polysaccaharide was detached by adding SDS-polyacrylamide gel electrophoresis sample buffer.

[12] = tested on: plasmid DNA (pBluescript SK(+)); assay: DNA gel retardation; format: binding; conditions: plasmid DNA 100 ng, 10 min at 37°C, agarose gel
C. albicans cells = assay: Flow cytometric analysis of cell membrane permeability (PI uptake); format: cell-based, Candida albicans; conditions: 30 min on ice, 12.5 µM Anal 3 or melittin, peptides at MIC
Experimental: Membrane integrity following peptide treatment was evaluated using flow cytometry. Anal 3, Anal 3-Pro or melittin (control) was added to C. albicans cells (2×10^5 cells in YPD media) to the MIC, after which cell membrane permeabilization was detected by incubating the treated cells in 50 µg/ml propidium iodide (PI) for 30 min at 4°C. After removing the unbound dye by extensively washing with PBS, the cells were subjected to flow cytometric analysis using a FACScalibur flow cytometer (Becton Dickinson, San Jose, CA). PI fluorescence was monitored in the FL2-H channel.

| Compound | MIC G(−) PV [1] [µM] | MIC G(−) EC [2] [µM] | MIC G(−) ST [3] [µM] | MIC Yeast SC [4] [µM] | MIC Yeast TB [5] [µM] | MIC Yeast CA [6] [µM] | MIC G(+) BS [7] [µM] | MIC G(+) SE [8] [µM] | MIC G(+) SA (S. aureus (KCTC 1621)) [µM] | MIC G(−) PA [9] [µM] | release of FD4 from PC/CH liposomes [10] [%] | release of FD4 from PE/PG liposomes [10] [%] | release of larger FD markers from PC/CH vesicles [10] | release of larger FD markers from PE/PG liposomes [10] | intracellular localization of FITC-conjugated peptide (T. begellii) | binding to chitin [11] | amount of peptide at which retardation of the pDNA band was detected [12] [µg] | PI influx (membrane permeabilization), in words (C. albicans cells) |
| --- | --- | --- | --- | --- | --- | --- | --- | --- | --- | --- | --- | --- | --- | --- | --- | --- | --- | --- |
| CC[C@H](C)[C@H](NC(=O)[C@H](CCCCN)NC(=O)[C@H](CO)NC(=O)[C@H](Cc1ccccc1)NC(=O)[C@H](CC(C)C)NC(=O)[C@H](CCCCN)NC(=O)[C@H](CCC(=O)O)NC(=O)[C@H](CC(C)C)NC(=O)[C@H](CCCNC(=N)N)NC(=O)[C@H](CCCCN)NC(=O)[C@H](CO)NC(=O)[C@@H](NC(=O)[C@H](CCCCN)NC(=O)[C@H](CCCCN)NC(=O)[C@H](C)N)C(C)C)C(=O)N[C@@H](CCC(N)=O)C(=O)N[C@@H](CC(N)=O)C(=O)N[C@@H](CC(=O)O)C(=O)N[C@@H](CCCCN)C(N)=O [Anal 5] (H-AKKVSKRLEKLFSKIQNDK-NH2) | 3.13 (≈ 7.07 µg/mL) | 6.25 (≈ 14.1 µg/mL) | 3.13 (≈ 7.07 µg/mL) | 50 to 100 | 50 (≈ 113 µg/mL) | 100 (≈ 226 µg/mL) | 3.13 (≈ 7.07 µg/mL) | 6.25 (≈ 14.1 µg/mL) | >12.5 | >12.5 |  |  |  |  |  |  |  |  |
| CC[C@H](C)[C@H](NC(=O)[C@H](CCCCN)NC(=O)[C@H](CO)NC(=O)[C@H](Cc1ccccc1)NC(=O)[C@H](CC(C)C)NC(=O)[C@H](CCCCN)NC(=O)[C@H](CCC(=O)O)NC(=O)[C@H](CC(C)C)NC(=O)[C@H](CCCNC(=N)N)NC(=O)[C@H](CCCCN)NC(=O)[C@H](Cc1ccccc1)NC(=O)[C@@H](NC(=O)[C@H](CCCCN)NC(=O)[C@H](CCCCN)NC(=O)[C@H](C)N)C(C)C)C(=O)N[C@@H](CCC(N)=O)C(=O)N[C@@H](CC(N)=O)C(=O)N[C@@H](CC(=O)O)C(=O)N[C@@H](CCCCN)C(N)=O [HP (2–20), reference compound] (H-AKKVFKRLEKLFSKIQNDK-NH2) | 3.13 (≈ 7.26 µg/mL) | 6.25 (≈ 14.5 µg/mL) | 0.78 (≈ 1.81 µg/mL) | 25 (≈ 58 µg/mL) | 12.5 to 25 | 25 (≈ 58 µg/mL) | 1.56 (≈ 3.62 µg/mL) | 3.13 (≈ 7.26 µg/mL) | 12.5 (≈ 29 µg/mL) | 12.5 (≈ 29 µg/mL) |  |  |  |  |  |  |  |  |
| buforin II |  |  |  |  |  |  |  |  |  |  | 3.6 | 5 | unable to release any of the larger markers | unable to release any of the larger markers | distributed throughout the fungal cells | recognized only chitin | 1 |  |
| melittin: antimicrobial peptide known to target the cell membrane |  |  |  |  |  |  |  |  |  |  |  |  |  |  |  |  |  | large influx of PI |
